Laboratory results published in publication PMC4791643, “Reconstruction of diaminopimelic acid biosynthesis allows characterisation of Mycobacterium tuberculosis N-succinyl-L,L-diaminopimelic acid desuccinylase” (Scientific Reports, 2016).

Target: T1, MtDapE (Mycobacterium tuberculosis, UniProt P9WHS9)
T1 construct: gene dapE
Assay: inhibition in coupled assay, preincubated with inhibitor, NADPH at […] nm
Format: biochemical
Settings: for inhibition at 1000 µM: read-out: % inhibition at 1 mM

T1 sequence (P9WHS9 whole entry, looked up): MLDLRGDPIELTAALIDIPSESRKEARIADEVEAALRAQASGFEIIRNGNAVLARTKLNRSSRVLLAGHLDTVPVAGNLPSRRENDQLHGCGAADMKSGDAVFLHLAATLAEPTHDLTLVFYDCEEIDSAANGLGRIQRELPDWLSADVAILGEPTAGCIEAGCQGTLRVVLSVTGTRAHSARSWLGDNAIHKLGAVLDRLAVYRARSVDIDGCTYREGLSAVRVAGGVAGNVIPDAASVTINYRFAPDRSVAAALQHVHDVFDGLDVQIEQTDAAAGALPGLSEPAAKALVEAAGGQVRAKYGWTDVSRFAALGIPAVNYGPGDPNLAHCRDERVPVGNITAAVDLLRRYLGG

Q: How did the inhibition at 1000 µM turn out when `C[C@H](CS)C(=O)N1CCC[C@H]1C(=O)O` [L-captopril] was run?
A: 23.3%

Q: Which inhibition at 10000 µM (read-out: % inhibition at 10 mM) does the source give for `OB(O)c1cccs1` [2-thiopheneboronic acid] here?
A: 22.3%

Q: For `CC(C)(S)[C@H](N)C(=O)O` [L-penicillamine], which inhibition at 1000 µM is on record?
A: 79.4%
